{"source": "patent US20100113590A1", "about": "“ADAM INHIBITOR” (Shiseido Company, Ltd., priority 2007, published 2010)", "system": "ADAM", "experiment": "Inhibition of PMA-induced TNF-α release from U937 cells (index of ADAM inhibition), hTNF-α ELISA", "type": "cell-based, human", "conditions": "for Inhibition rate (%): U937 cells, 30 min pretreatment, 10 nM PMA for 6 hours, released hTNF-α by ELISA; for suppressing effect on HB-EGF release: statement in words summarising the screening, suggests inhibition of ADAM activity", "method": "For the ADAM inhibiting effect, the TNF-α which is cut out to be released from the membrane of the U937 cell derived from the human lymphoma through the action of ADAM was used as an index, and the inhibiting effect on the TNF-α release by the agents was assessed. A new ADAM inhibitor was explored by screening different compounds according to the present method.\nThe U937 cells derived from the human lymphoma were seeded to the 48-well plate adjusting the number of the cells to 1×10^5 cells/0.25 ml and cultured at 37° C. overnight. The medium which contained 5 μg/ml or 30 μg/ml of an ascorbic acid derivative was added and incubated at 37° C. for 30 min. to be pretreated. 10 nM PMA (phorbol ester: 12-O-tetradecanoylphorbol-acetate; Sigma P8139) was then added and cultured at 37° C. for 6 hours. After completion of the treatment, the supernatant of the culture was collected, centrifuged and the cell-free supernatant was cryopreserved at −20° C. The assay of the released hTNF-α was performed using the hTNF-α Duo-Set ELISA kit from R & D Ltd. Each supernatant of the culture was diluted 5-folds with the medium, then […] each was added to the 96-well plate and measured according to the protocol of R & D Ltd. The absorbance at 450-570 nm of each well was measured by the measurement kit and concentrations of the samples were obtained from the standard curve. The inhibition rates were calculated according to the following equation wherein A0 is the absorbance of 0% inhibiting control (the medium containing only PMA), A100 is the absorbance of 100% inhibiting control (only the medium) and AS is the absorbance of the sample.\nThe inhibition rate (%)=(A0−AS)/(A0−A100)×100", "data": [{"molecule": "CCCCCCCCCCCCOC1=C(O)[C@@H]([C@@H](O)CO)OC1=O", "note": "[2-O-dodecyl ascorbic acid]", "values": [{"measurement": "Inhibition rate (%)", "setting": "5 μg/mL", "value": 18.25, "unit": "%"}, {"measurement": "Inhibition rate (%)", "setting": "30 μg/mL", "value": 60.07, "unit": "%"}, {"measurement": "suppressing effect on HB-EGF release", "value": "high suppressing effect"}]}, {"molecule": "CCCCCCCCCCCCCCCCCCOC1=C(O)[C@@H]([C@@H](O)CO)OC1=O", "note": "[2-O-octadecyl ascorbic acid]", "values": [{"measurement": "Inhibition rate (%)", "setting": "5 μg/mL", "value": 15.19, "unit": "%"}, {"measurement": "Inhibition rate (%)", "setting": "30 μg/mL", "value": 82.70, "unit": "%"}, {"measurement": "suppressing effect on HB-EGF release", "value": "high suppressing effect"}]}]}
